Laboratory results reported in USRE47885E1, “Use of cannabidiol prodrugs in pharmaceutical compositions” (Zynerba Pharmaceuticals, Inc., priority 2009, dated 2020).

Columns and labels:
[1] = Chemical stability of ALL00179 in 100% ddH2O donor solution; format: physicochemical; conditions: for purity level after 72 hr: ALL00179 after 72 hr in ddH7O at RT; for initial purity (composition of ALL00179 sample): ALL00179 for 100% ddH2O donor solution
Protocol: ALL00179 was placed in 100% ddH2O donor solution to check chemical stability. The initial purity of ALL00179 was 94.7% ALL00179, 5.3% ALL00180, and 0% CBD. After 72 hr in ddH7O at RT, the purity level was determined to be 86.8% ALL00179, 13.2% ALL00180 and 0% CBD.

[2] = format: in vitro ADME; conditions: ALL00179 added to human plasma; for Percent Prodrug and CBD at time (min) 0*: 0 min (approximately 1 minute of mixing and withdrawal); for Percent Prodrug and CBD at time (min) 5: 5 min; for Percent Prodrug and CBD at time (min) 10: 10 min; for Percent Prodrug and CBD at time (min) 20: 20 min; for Percent Prodrug and CBD at time (min) 30: 30 min; for Percent Prodrug and CBD at time (min) 60: 60 min; for Percent Prodrug and CBD at time (min) 120: 120 min
Protocol: Stability of the prodrug in human plasma was performed to monitor the conversion of ALL00179 to the monosubstituted form, ALL00180, and CBD. The molecular structure of ALL00180 and CBD are shown below: […]

[3] = In vitro diffusion study through microneedle-treated full thickness Yucatan pig skin (flow-through diffusion cell); format: in vitro ADME; conditions: ALL00179 100% ddH2O donor solution, end of 48 h diffusion study
Description: The purpose of the diffusion study was to determine whether microneedle (MN) treated skin would allow the rapid permeation of a water-soluble prodrug of CBD (ALL00179) compared to CBD.
Briefly, full thickness Yucatan pig (YP) skin was used to perform the microneedle studies. The average thickness of the YP skin was approximately 1.0±0.1 mm. A PermeGear flow-through (In-Line, Hellertown, Pa.) diffusion cell system was used for the skin permeation studies. One hundred microneedle insertions were made into the skin before mounting in the flow-through diffusion cell by treating the skin 20 times with an array containing 5 microneedles. Each cell was charged with 250 μl of either 318 mM CBD (n=4) or ALL00179 (n=5) and occluded with rubber stoppers. Ten percent ethanol in water was used as a receiver solution. Samples were collected at six-hour intervals for a total of 48 hours. (See FIG. 1 for the permeation profile.)

[4] = cited from earlier work
[5] = Previous studies: permeation through intact skin (non-MN treated, 100% ddH2O donor solution); format: in vitro ADME
Protocol: Likewise, short lag times were observed throughout the study for the ALL00179-treated skin. […] In this study, the total amount of CBD delivered from a 25 mg ALL00179-containing donor solution was 0.2±0.1 mg total CBD equivalents in the skin and 1.0±0.2 mg total CBD equivalents in the receiver solution after 48 hr. This accounts for approximately 4.8% of the total ALL00179 in the donor solution.

[6] = Permeation from an optimized gel system of cannabidiol through intact dermatomed human skin; format: in vitro ADME; conditions: optimized gel system of cannabidiol (2.5% w/w), dosed every 12 hr
Description: As a comparison, permeation from an optimized gel system of cannabidiol (2.5% w/w) through intact dermatomed human skin, dosed every 12 hr, gave a flux of 5.2 nmol/cm^2/h. The total CBD flux from ALLL00179 after MN treatment of full thickness Yucatan pig skin was 63.2±11.4 nmol/cm^2/h, resulting in a 12.2 fold enhancement of flux.

[7] = used in conjunction with microneedles

| Structure (SMILES) | purity level after 72 hr [1] | initial purity (composition of ALL00179 sample) [1] | Percent Prodrug and CBD at time (min) 0* [2] | Percent Prodrug and CBD at time (min) 5 [2] | Percent Prodrug and CBD at time (min) 10 [2] | Percent Prodrug and CBD at time (min) 20 [2] | Percent Prodrug and CBD at time (min) 30 [2] | Percent Prodrug and CBD at time (min) 60 [2] | Percent Prodrug and CBD at time (min) 120 [2] | composition of the donor solutions at the end of the study [3] | naltrexone levels ([4]; 16% naltrexone hydrochloride gel, 6 healthy human volunteers, microneedle pretreatment) | duration of steady state naltrexone concentrations [4, 7] | time to steady state naltrexone concentrations [4, 7] | drug detected in the skin [5] | flux through intact skin [5] | flux [6] |
| --- | --- | --- | --- | --- | --- | --- | --- | --- | --- | --- | --- | --- | --- | --- | --- | --- |
| C=C(C)[C@@H]1CCC(C)=C[C@H]1c1c(O)cc(CCCCC)cc1OC(=O)C[N+](C)(C)C [ALL00180] | 13.2% | 5.3% | 86.1% | 66.8% | 44.9% | 22.9% | 10.6% | 2.4% | 0.0% | 15.7±2.6% | – | – | – | – | – | – |
| O=C1CC[C@@]2(O)[C@H]3Cc4ccc(O)c5c4[C@@]2(CCN3CC2CC2)[C@H]1O5 [naltrexone] | – | – | – | – | – | – | – | – | – | – | 2.5 ± 1.1 ng/mL | 48 h | within two hours | – | – | – |
| C=C(C)[C@@H]1CCC(C)=C[C@H]1c1c(O)cc(CCCCC)cc1O [Cannabidiol] | 0% | 0% | 4.7% | 30.2% | 55.1% | 77.1% | 89.4% | 97.6% | 100% | 0% | – | – | – | none | no flux | 5.2 nmol/cm^2/h |
| C=C(C)[C@@H]1CCC(C)=C[C@H]1c1c(OC(=O)C[N+](C)(C)C)cc(CCCCC)cc1OC(=O)C[N+](C)(C)C.[Cl-].[Cl-] [ALL00179] | 86.8% | 94.7% | 9.2% | 3.0% | 0.0% | 0.0% | 0.0% | 0.0% | 0.0% | 84.3±2.6% | – | – | – | – | no flux | – |
